Measured values from patent US9549985B2, “Compositions comprising polymers prepared from 2-hydroxyalkyl acids” (UNIVERSITE DE GENEVE, priority 2010, dated 2017).

Assay: Solubility of Haloperidol in the hexPLA matrix
Assay type: physicochemical
Details: depends on polymer molecular weight

Solubility of Haloperidol in hexPLA matrix: dissolvable
SMILES: O=C(CCCN1CCC(O)(c2ccc(Cl)cc2)CC1)c1ccc(F)cc1 [Haloperidol]
